Measured values taken from PubChem BioAssay AID1259408 (Genetic Toxicology Data Bank (GENE-TOX), 2018).
The source made the active and inactive calls. How the calls were made is not given here.

System: GENE-TOX genotoxicity assays, various organisms and cells
Assay: GENE-TOX mutagenicity studies
Details: for call: Assay Type: In vivo carcinogenicity studies
[1] = Species/Cell Type: Escherichia coli polA (W3119 vs P3478), Assay Type: Rec-assay, DNA effects (bacterial DNA repair), Assay Code: RE1+, Evaluation Type: Evaluation A (Pre-1980)
[2] = Species/Cell Type: Human lymphocytes or leukocytes, Assay Type: Chromosome aberrations in vitro, Assay Code: CY7+D, Dose Response: With dose response, Evaluation Type: Evaluation A (Pre-1980)
[3] = Species/Cell Type: Human, Assay Type: Sister-chromatid exchange (SCE) in vitro, Assay Code: SC1+, Evaluation Type: Evaluation B (Post-1980)
[4] = Species/Cell Type: Salmonella typhimurium (one or more of the five standard strains: TA98, TA100, TA1535, TA1537, and TA1538), Assay Type: Histidine reverse gene mutation, Ames assay, Assay Code: SALT, Evaluation Type: Evaluation A (Pre-1980)
[5] = Species/Cell Type: Mammalian polychromatic erythrocytes, Assay Type: Micronucleus test, chromosome aberrations, Assay Code: MNT+, Evaluation Type: Evaluation B (Post-1980)
[6] = Species/Cell Type: Bacillus subtilis (H17 vs M45), Assay Type: Rec-assay, spot test, DNA effects (bacterial DNA repair), Assay Code: REW-, Evaluation Type: Evaluation A (Pre-1980)
[7] = Species/Cell Type: Drosophila melanogaster, Assay Type: Sex-linked recessive lethal gene mutation, Assay Code: SRLT, Evaluation Type: Evaluation A (Pre-1980)
[8] = Species/Cell Type: Drosophila melanogaster, Assay Type: Sex-linked recessive lethal gene mutation, Assay Code: SRL+, Evaluation Type: Evaluation A (Pre-1980)
[9] = Species/Cell Type: Mouse lymphoma (L5178Y) cells, Assay Type: Forward gene mutation at the thymidine kinase (TK) locus, chromosome aberrations, Assay Code: L51+, Evaluation Type: Evaluation A (Pre-1980)
[10] = Species/Cell Type: Mouse, Sex: Male, Assay Type: Sperm morphology, Assay Code: SPI+, Evaluation Type: Evaluation A (Pre-1980)
[11] = Species/Cell Type: Nonhuman, Assay Code: CCG+L, Evaluation Type: Evaluation A (Pre-1980)
[12] = Species/Cell Type: Nonhuman, Assay Type: Chromosome aberrations in vitro, Assay Code: CY&+, Evaluation Type: Evaluation A (Pre-1980)

## OCl
[1]
  mutagenic call: active; positive
[2]
  mutagenic call: active; positive
[3]
  mutagenic call: active; positive
Species/Cell Type: Mammalian polychromatic erythrocytes, Assay Type: Micronucleus test, chromosome aberrations, Assay Code: MNTT, Evaluation Type: Evaluation B (Post-1980)
  mutagenic call: no conclusion
Species/Cell Type: Nonhuman, Assay Type: Chromosome aberrations in vitro, Assay Code: CY&+D, Dose Response: With dose response, Evaluation Type: Evaluation A (Pre-1980)
  mutagenic call: active; positive
[4]
  mutagenic call: no conclusion

## CCOC(=O)NC(=S)Nc1ccccc1NC(=S)NC(=O)OCC
Species/Cell Type: Aspergillus nidulans, Assay Type: Aneuploidy, chromosome aberrations, Assay Code: ASN+, Evaluation Type: Evaluation A (Pre-1980)
  mutagenic call: active; positive
Species/Cell Type: Aspergillus nidulans, Assay Type: Mitotic recombination, Assay Code: ASGT, Evaluation Type: Evaluation A (Pre-1980)
  mutagenic call: no conclusion

## Clc1cccc(Cl)c1Cl
[5]
  mutagenic call: active; positive

## COc1cc2c(c(O)c1OC)C13CCC(OC)CC1N(CC3)C2 (centres undefined)
[5]
  mutagenic call: active; positive

## N=c1ccc2nc3ccc(N)cc3sc-2c1
[6]
  mutagenic call: inactive; negative
[7]
  mutagenic call: no conclusion
Species/Cell Type: Saccharomyces cerevisiae, Assay Type: Mitotic recombination or gene conversion, Assay Code: YECT, Evaluation Type: Evaluation A (Pre-1980)
  mutagenic call: no conclusion

## Nc1ccc(-c2ccc(-c3ccc(N)cc3)cc2)cc1
[5]
  mutagenic call: active; positive

## CS(=O)(=O)OCCCCOS(C)(=O)=O
Species/Cell Type: Arabidopsis species, Assay Type: Gene mutation, Assay Code: ARM+, Evaluation Type: Evaluation A (Pre-1980)
  mutagenic call: active; positive
Species/Cell Type: Chinese hamster ovary (CHO) cells, Assay Type: Forward gene mutation at the HPRT locus, Assay Code: CHO+, Evaluation Type: Evaluation B (Post-1980)
  mutagenic call: active; positive
[8]
  mutagenic call: active; positive
[1]
  mutagenic call: active; positive
Species/Cell Type: Hordeum vulgare (barley), Assay Type: Chromosome aberrations, Assay Code: HOC+D, Dose Response: With dose response, Evaluation Type: Evaluation A (Pre-1980)
  mutagenic call: active; positive
[2]
  mutagenic call: active; positive
Species/Cell Type: Human lymphocytes, Assay Type: Sister-chromatid exchange (SCE) in vitro, Assay Code: SCL+D, Dose Response: With dose response, Evaluation Type: Evaluation A (Pre-1980)
  mutagenic call: active; positive
Species/Cell Type: Human lymphocytes, Assay Type: Sister-chromatid exchange (SCE) in vivo, Assay Code: SCY+, Evaluation Type: Evaluation B (Post-1980)
  mutagenic call: active; positive
Species/Cell Type: Human, Assay Type: Sister-chromatid exchange (SCE) in vitro, Assay Code: SC1+D, Dose Response: With dose response, Evaluation Type: Evaluation A (Pre-1980)
  mutagenic call: active; positive
Species/Cell Type: Mammalian germ cells, Sex: Male, Assay Type: Chromosome aberrations in vivo, Assay Code: CY9T, Evaluation Type: Evaluation A (Pre-1980)
  mutagenic call: no conclusion
[5]
  mutagenic call: active; positive
Species/Cell Type: Mammalian polychromatic erythrocytes, Assay Type: Micronucleus test, chromosome aberrations, Assay Code: MNTT, Evaluation Type: Evaluation A (Pre-1980)
  mutagenic call: no conclusion
[9]
  mutagenic call: active; positive
[10]
  mutagenic call: active; positive
Species/Cell Type: Neurospora crassa, Assay Type: Forward gene mutation, Assay Code: NEF+, Evaluation Type: Evaluation A (Pre-1980)
  mutagenic call: active; positive
Species/Cell Type: Nonhuman bone marrow, Assay Type: Chromosome aberrations, in vivo, Assay Code: CY#+D, Dose Response: With dose response, Evaluation Type: Evaluation A (Pre-1980)
  mutagenic call: active; positive
Species/Cell Type: Nonhuman, Assay Code: CCGT, Evaluation Type: Evaluation A (Pre-1980)
  call: no conclusion
Species/Cell Type: Nonhuman, Assay Type: Sister-chromatid exchange (SCE) in vitro, Assay Code: SC2+, Evaluation Type: Evaluation B (Post-1980)
  mutagenic call: active; positive
Species/Cell Type: Rabbit, Sex: Male, Assay Type: Sperm morphology, Assay Code: SPR+, Evaluation Type: Evaluation A (Pre-1980)
  mutagenic call: active; positive
Species/Cell Type: Rodents, Sex: Male, Assay Type: Dominant lethal test, Assay Code: DLT+, Evaluation Type: Evaluation A (Pre-1980)
  mutagenic call: active; positive

## CCS(=O)CCSP(=S)(OC)OC (centres undefined)
[7]
  mutagenic call: no conclusion

## Cc1ccccc1O
Species/Cell Type: Allium cepa, Assay Type: Chromosome aberrations, Assay Code: ALCT, Evaluation Type: Evaluation A (Pre-1980)
  mutagenic call: no conclusion
Species/Cell Type: Human lymphocytes, Assay Type: Sister-chromatid exchange (SCE) in vitro, Assay Code: SCLT, Evaluation Type: Evaluation B (Post-1980)
  mutagenic call: no conclusion
[3]
  mutagenic call: active; positive
Species/Cell Type: Nonhuman, Assay Type: Sister-chromatid exchange (SCE) in vivo, Assay Code: SC3T, Evaluation Type: Evaluation B (Post-1980)
  mutagenic call: no conclusion

## CCCCNc1ccc(C(=O)OCCN(C)C)cc1
[4]
  mutagenic call: no conclusion

## CC(=O)c1c(=O)cc(C)oc1=O
Species/Cell Type: Nonhuman, Assay Type: Sister-chromatid exchange (SCE) in vitro, Assay Code: SC2-, Evaluation Type: Evaluation A (Pre-1980)
  mutagenic call: inactive; negative
Species/Cell Type: Nonhuman, Assay Type: Sister-chromatid exchange (SCE) in vitro, Assay Code: SC2T, Evaluation Type: Evaluation B (Post-1980)
  mutagenic call: no conclusion

## CCSCC[C@H](N)C(=O)O
Species/Cell Type: Escherichia coli polA (W3110 vs P3478), Assay Type: Rec-assay, DNA effects (bacterial DNA repair), Assay Code: RE2T, Evaluation Type: Evaluation A (Pre-1980)
  mutagenic call: no conclusion
Species/Cell Type: Escherichia coli polA (W3119 vs P3478), Assay Type: Rec-assay, DNA effects (bacterial DNA repair), Assay Code: RE1T, Evaluation Type: Evaluation A (Pre-1980)
  mutagenic call: no conclusion
Species/Cell Type: Human diploid fibroblasts, Assay Type: Unscheduled DNA synthesis (UDS) in vitro, DNA effects, Assay Code: UDH-, Evaluation Type: Evaluation A (Pre-1980)
  mutagenic call: inactive; negative
Species/Cell Type: Human lymphocytes, Assay Type: Sister-chromatid exchange (SCE) in vitro, Assay Code: SCL+, Evaluation Type: Evaluation B (Post-1980)
  mutagenic call: active; positive
[3]
  mutagenic call: active; positive
Species/Cell Type: Mammalian polychromatic erythrocytes, Assay Type: Micronucleus test, chromosome aberrations, Assay Code: MNT+, Evaluation Type: Evaluation A (Pre-1980)
  mutagenic call: active; positive
[10]
  mutagenic call: active; positive
Species/Cell Type: Saccharomyces cerevisiae, Assay Type: Mitotic recombination or gene conversion, Assay Code: YEH-, Evaluation Type: Evaluation A (Pre-1980)
  mutagenic call: inactive; negative
Species/Cell Type: Salmonella typhimurium (one or more of the five standard strains: TA98, TA100, TA1535, TA1537, and TA1538), Assay Type: Histidine reverse gene mutation, Ames assay, Assay Code: SAL-, Evaluation Type: Evaluation A (Pre-1980)
  mutagenic call: inactive; negative
Species/Cell Type: Salmonella typhimurium, Assay Type: Forward and reverse gene mutation, host-mediated assay, Assay Code: HMA-, Evaluation Type: Evaluation A (Pre-1980)
  mutagenic call: inactive; negative
Species/Cell Type: Syrian hamster embryo (SHE) cells, Assay Type: Cell transformation, clonal assay, Assay Code: CTC+, Evaluation Type: Evaluation A (Pre-1980)
  mutagenic call: active; positive

## CCN(N=O)C(=O)Nc1ccccc1
Species/Cell Type: Nonhuman, Assay Type: Sister-chromatid exchange (SCE) in vitro, Assay Code: SC2+D, Dose Response: With dose response, Evaluation Type: Evaluation B (Post-1980)
  mutagenic call: active; positive

## CC1=C2CCc3c2c(cc2c3ccc3ccccc32)C(O)C1O (centres undefined)
Species/Cell Type: Chinese hamster lung (V79) cells, Assay Type: Forward gene mutation at the HPRT or ouabain locus, Assay Code: V79-, Evaluation Type: Evaluation A (Pre-1980)
  mutagenic call: inactive; negative
[11]
  call: active; positive

## CCN(CCNc1ccc(CO)c2sc3ccccc3c(=O)c12)CC(C)(C)O
[9]
  mutagenic call: active; positive

## O[C@@H]1C=Cc2c(cc3ccc4cccc5ccc2c3c45)[C@H]1O
Species/Cell Type: Chinese hamster lung (V79) cells, Assay Type: Forward gene mutation at the HPRT or ouabain locus, Assay Code: V79+, Evaluation Type: Evaluation A (Pre-1980)
  mutagenic call: active; positive
[11]
  call: active; positive

## COc1cc(O)c2c(c1)C(=O)c1cc(C)cc(O)c1C2=O
Species/Cell Type: Salmonella typhimurium (one or more of the five standard strains: TA98, TA100, TA1535, TA1537, and TA1538), Assay Type: Histidine reverse gene mutation, Ames assay, Assay Code: SAL+*, Activation: With metabolic activation, Evaluation Type: Evaluation A (Pre-1980)
  mutagenic call: active; positive

## C[n+]1c2ccccc2cc2ccccc21
Species/Cell Type: Saccharomyces cerevisiae, Assay Type: Forward gene mutation, Assay Code: YEFT, Evaluation Type: Evaluation A (Pre-1980)
  mutagenic call: no conclusion

## CCCNP(=O)(N1CC1)N1CC1
[8]
  mutagenic call: active; positive
[12]
  mutagenic call: active; positive
Species/Cell Type: Schizosaccharomyces pombe, Assay Type: Reverse gene mutation, Assay Code: YEZ+, Evaluation Type: Evaluation A (Pre-1980)
  mutagenic call: active; positive

## CS(=O)(=O)OC[C@H](O)[C@@H]1CO1
Species/Cell Type: Allium cepa, Assay Type: Chromosome aberrations, Assay Code: ALC+D, Dose Response: With dose response, Evaluation Type: Evaluation A (Pre-1980)
  mutagenic call: active; positive

## O=S(=O)(O)c1ccc2c(N=Nc3cccc4ccccc34)c(O)c(S(=O)(=O)O)cc2c1
Species/Cell Type: Bacillus subtilis (H17 vs M45), Assay Type: Rec-assay, spot test, DNA effects (bacterial DNA repair), Assay Code: REWT, Evaluation Type: Evaluation A (Pre-1980)
  mutagenic call: no conclusion

## COc1c(C)c2c(c(O)c1C/C=C(\C)CCC(=O)O)C(=O)OC2
[6]
  mutagenic call: inactive; negative
[12]
  mutagenic call: active; positive
[4]
  mutagenic call: no conclusion
